US10028508B2, “Use of active compound compositions” (BAYER CROPSCIENCE AKTIENGESELLSCHAFT, priority 2014, dated 2018)
Read-outs that look alike come from different tables or passages of the source.

System: Anopheles funestus metabolic-resistant strain FUMOZ-R
Test: Metabolic-Resistant Anopheles Test (mortality on treated tile, wood, concrete)
Assay type: in vivo
Conditions: for mortality at 100 mg/m2: Clothianidin 100 mg/m2, read-out: Mortality Effect %; for mortality at 200 mg/m2: Clothianidin 200 mg/m2, read-out: Mortality Effect %
Protocol: To produce a suitable preparation of active compound combination the active compounds deltamethrin and clothanidin were dissolved in acetone (for the control group only one active compound was dissolved in acetone). The active compound combination preparation (and the active compound preparations) were pipetted onto a glazed tile, wood and concrete and, after drying, adult mosquitoes of the species Anopheles funestus metabolic-resistant strain FUMOZ-R (Hunt et al., Med Vet Entomol. 2005 September; 19(3):271-5) are placed onto the treated tile, wood and concrete. The exposition time is 30 minutes.
1 hour, 2 hour, 4 hour, 24 hours after contact to the treated surface, the mortality proportion of the test animals in % is determined. Here, 100% means that all mosquitoes have been killed; 0% means that none of the mosquitoes has been killed. The treated tile, wood and concrete was stored under stress conditions (30° C./80% rh). Measurement with the treated tile, wood and concrete was repeated 5 weeks (Table 1), 11 weeks (Table 2) and 60 weeks (Table 3) after the treatment with the active compound combination.

[1] = 5 weeks after treatment, Concrete, 1 h after contact
[2] = 5 weeks after treatment, Concrete, 2 h after contact
[3] = 5 weeks after treatment, Concrete, 4 h after contact
[4] = 5 weeks after treatment, Concrete, 24 h after contact
[5] = 5 weeks after treatment, Tile, 1 h after contact
[6] = 5 weeks after treatment, Tile, 2 h after contact
[7] = 5 weeks after treatment, Tile, 4 h after contact
[8] = 5 weeks after treatment, Tile, 24 h after contact
[9] = 5 weeks after treatment, Wood, 1 h after contact
[10] = 5 weeks after treatment, Wood, 2 h after contact
[11] = 5 weeks after treatment, Wood, 4 h after contact
[12] = 5 weeks after treatment, Wood, 24 h after contact
[13] = 11 weeks after treatment, Concrete, 1 h after contact
[14] = 11 weeks after treatment, Concrete, 2 h after contact
[15] = 11 weeks after treatment, Concrete, 4 h after contact
[16] = 11 weeks after treatment, Concrete, 24 h after contact
[17] = 11 weeks after treatment, Tile, 1 h after contact
[18] = 11 weeks after treatment, Tile, 2 h after contact
[19] = 11 weeks after treatment, Tile, 4 h after contact
[20] = 11 weeks after treatment, Tile, 24 h after contact
[21] = 11 weeks after treatment, Wood, 1 h after contact
[22] = 11 weeks after treatment, Wood, 2 h after contact
[23] = 11 weeks after treatment, Wood, 4 h after contact
[24] = 11 weeks after treatment, Wood, 24 h after contact
[25] = 60 weeks after treatment, Concrete, 1 h after contact
[26] = 60 weeks after treatment, Concrete, 2 h after contact
[27] = 60 weeks after treatment, Concrete, 4 h after contact
[28] = 60 weeks after treatment, Concrete, 24 h after contact
[29] = 60 weeks after treatment, Tile, 1 h after contact
[30] = 60 weeks after treatment, Tile, 2 h after contact
[31] = 60 weeks after treatment, Tile, 4 h after contact
[32] = 60 weeks after treatment, Tile, 24 h after contact
[33] = 60 weeks after treatment, Wood, 1 h after contact
[34] = 60 weeks after treatment, Wood, 2 h after contact
[35] = 60 weeks after treatment, Wood, 4 h after contact
[36] = 60 weeks after treatment, Wood, 24 h after contact

`CN/C(=N\[N+](=O)[O-])NCc1cnc(Cl)s1` [Clothianidin, clothianidin] was tested, and the mortality at 100 mg/m2 [1] was 15%, the mortality at 200 mg/m2 [1] was 3% and the mortality at 100 mg/m2 [2] was 10%. The mortality at 200 mg/m2 [2] was 17%, the mortality at 100 mg/m2 [3] was 30% and the mortality at 200 mg/m2 [3] was 30%. The mortality at 100 mg/m2 [4] was 93%, the mortality at 200 mg/m2 [4] was 83% and the mortality at 100 mg/m2 [5] was 0%. For the same molecule, the mortality at 200 mg/m2 [5] was 0%, the mortality at 100 mg/m2 [6] was 7% and the mortality at 200 mg/m2 [6] was 0%. It also gave a mortality at 100 mg/m2 [7] of 7%, a mortality at 200 mg/m2 [7] of 10% and a mortality at 100 mg/m2 [8] of 80%. For the same molecule, the mortality at 200 mg/m2 [8] was 90%, the mortality at 100 mg/m2 [9] was 7% and the mortality at 200 mg/m2 [9] was 7%. It also gave a mortality at 100 mg/m2 [10] of 20%, a mortality at 200 mg/m2 [10] of 10% and a mortality at 100 mg/m2 [11] of 27%. It also gave a mortality at 200 mg/m2 [11] of 20%, a mortality at 100 mg/m2 [12] of 93% and a mortality at 200 mg/m2 [12] of 93%. The mortality at 100 mg/m2 [13] was 23%, the mortality at 200 mg/m2 [13] was 3% and the mortality at 100 mg/m2 [14] was 67%. It also gave a mortality at 200 mg/m2 [14] of 17%, a mortality at 100 mg/m2 [15] of 73% and a mortality at 200 mg/m2 [15] of 47%. It also gave a mortality at 100 mg/m2 [16] of 93%, a mortality at 200 mg/m2 [16] of 83% and a mortality at 100 mg/m2 [17] of 7%. The mortality at 200 mg/m2 [17] was 7%, the mortality at 100 mg/m2 [18] was 10% and the mortality at 200 mg/m2 [18] was 20%. The mortality at 100 mg/m2 [19] was 13%, the mortality at 200 mg/m2 [19] was 43% and the mortality at 100 mg/m2 [20] was 37%. The mortality at 200 mg/m2 [20] was 73%, the mortality at 100 mg/m2 [21] was 0% and the mortality at 200 mg/m2 [21] was 13%. For the same molecule, the mortality at 100 mg/m2 [22] was 3%, the mortality at 200 mg/m2 [22] was 17% and the mortality at 100 mg/m2 [23] was 33%. It also gave a mortality at 200 mg/m2 [23] of 17%, a mortality at 100 mg/m2 [24] of 27% and a mortality at 200 mg/m2 [24] of 40%. The mortality at 100 mg/m2 [25] was 0%, the mortality at 200 mg/m2 [25] was 0% and the mortality at 100 mg/m2 [26] was 3%. The mortality at 200 mg/m2 [26] was 7%, the mortality at 100 mg/m2 [27] was 20% and the mortality at 200 mg/m2 [27] was 17%. It also gave a mortality at 100 mg/m2 [28] of 37%, a mortality at 200 mg/m2 [28] of 63% and a mortality at 100 mg/m2 [29] of 0%. It also gave a mortality at 200 mg/m2 [29] of 0%, a mortality at 100 mg/m2 [30] of 0% and a mortality at 200 mg/m2 [30] of 3%. The mortality at 100 mg/m2 [31] was 0%, the mortality at 200 mg/m2 [31] was 7% and the mortality at 100 mg/m2 [32] was 17%. The mortality at 200 mg/m2 [32] was 43%, the mortality at 100 mg/m2 [33] was 0% and the mortality at 200 mg/m2 [33] was 0%. For the same molecule, the mortality at 100 mg/m2 [34] was 0%, the mortality at 200 mg/m2 [34] was 3% and the mortality at 100 mg/m2 [35] was 0%. It also gave a mortality at 200 mg/m2 [35] of 3%, a mortality at 100 mg/m2 [36] of 10% and a mortality at 200 mg/m2 [36] of 17%.
